Source: patent US8128802B2, “Analysis apparatus and analysis method for glycosylated hemoglobin” (OJI Paper Co., Ltd, priority 2005, dated 2012)

Assays:
Format in all cases: biochemical
[1] = system: fructosyl peptide oxidase; assay: Substrate specificity, pH profile and stability of fructosyl peptide oxidase-immobilized column (Example 1); conditions: for Relative activity (%) pH 6.0: buffer pH 6.0; for Relative activity (%) pH 6.0 / Relative activity (%) pH 7.0 / Relative activity (%) pH 8.0: normalized to 100 for the response to fructosyl valine at each pH, 30° C.; for Relative activity (%) pH 7.0: buffer pH 7.0; for Relative activity (%) pH 8.0: buffer pH 8.0
Experimental: Firebrick powder (150 mg, 30 to 60 meshes) was thoroughly dried, immersed in a 10% solution of γ-aminopropyltriethoxysilane in anhydrous toluene for one hour, then thoroughly washed with anhydrous toluene and dried. The aminosilane-modified support was immersed in a 5% aqueous glutaraldehyde solution for one hour, and then thoroughly washed with distilled water, followed by substitution with 100 mM sodium phosphate buffer (pH 7.0). The buffer was removed as far as possible. A solution ([…]) of fructosyl peptide oxidase (140 units/mL, from Kikkoman Co.) in 100 mM sodium phosphate buffer (pH 7.0) was contacted with the formylated firebrick powder, and then incubated at 0 to 4° C. for one day for the enzyme immobilization. The support immobilized enzyme was packed into a column (internal diameter: 3.5 mm, length: 30 mm) to give the fructosyl peptide oxidase-immobilized column.
The buffer was pumped out from a buffer tank (1) using a pump (2), and 5 μL of a sample was injected using a valve (4). A protease-immobilized column (14), a flow type calorimeter (16), a second immobilized enzyme column (19) and a second electrode for hydrogen peroxide (20) were not placed, and a fructosyl peptide oxidase-immobilized column was placed as a first immobilized enzyme column (17), followed by an electrode for hydrogen peroxide (18) downstream thereof. The injected sample transferred with the flowing buffer, passed through a mixing coil (15) inside an incubator (13), and thus the sample temperature was adjusted and the sample was mixed with the buffer. The sample passed through the fructosyl peptide oxidase-immobilized column (17) and the electrode for hydrogen peroxide (18) to produce hydrogen peroxide from fructosyl valylhistidine in the sample, and then the change of the current was detected.
A composition of the buffer used in this assay apparatus contained 100 mM phosphoric acid, 50 mM potassium chloride and 1 mM sodium azide, and its pH was 7.0.
(§1) The flow rate of the buffer was 1.0 mL/minute, and the temperature in the incubator was 30° C.
Using the assay apparatus described in (3), a 5 μL portion of fructosyl glycine, fructosyl valine or fructosyl valylhistidine was injected, and the characteristics of the fructosyl peptide oxidase-immobilized column was examined.
When pH of the buffer was 6.0, 7.0 or 8.0, the assay results of the activity for the oxidation of fructosyl glycine (FG), fructosyl valine (FV) or fructosyl valylhistidine (FVH) were shown in FIG. 3. For fructosyl glycine the activity was high at pH 8.0, but the activity at pH 6.0 was decreased to about 50% of that at pH 8.0. For fructosyl valine and fructosyl valylhistidine, the activity was high at pH 6.0 and 7.0.
Response values in Table 1 were normalized to 100 for the response to fructosyl valine at each pH.

[2] = system: fructosyl amino acid oxidase; assay: Substrate specificity of fructosyl amino acid oxidase-immobilized column (Example 3); conditions: buffers pH 8.0; for Relative response value: normalized to 100 for the response to fructosyl glycine, 37° C., dialysis module
Excerpt: The buffer was removed as far as possible. […] The support immobilized enzyme was packed into the column (internal diameter: 3.5 mm, length: 30 mm) to give the fructosyl amino acid oxidase-immobilized column. In the assay apparatus shown in FIG. 2, the flow type calorimeter (16), the protease-immobilized column (14) and the first immobilized enzyme column (17) were not disposed, and the electrode for glucose was placed in the electrode for hydrogen peroxide (18), the fructosyl amino acid oxidase-immobilized column in the second immobilized enzyme column (19), and the electrode for hydrogen peroxide in the electrode for hydrogen peroxide (20). The buffer B was pumped out from the buffer tank (24) using the pump (25), and a 100 μL portion of the sample was injected using the valve (4). […] Since the buffer A was pumped out from the buffer tank (1) by the pump (2), the components with low molecular weight in the sample dialyzed in the dialysis module (27) passed through the electrode for glucose (18), the fructosyl amino acid oxidase-immobilized column (19) and the electrode for hydrogen peroxide (20), and hydrogen peroxide from glucose and fructosyl amino acid in the sample was detected. […] The temperature in the incubator was 37° C. The substrate specificity of fructosyl amino acid oxidase-immobilized column for various fructosyl amino acids, fructosyl peptides, amino acids and sugars was examined using the assay apparatus mentioned in (4) when pH of the buffers was 8.0.

[3] = system: fructosyl peptide oxidase; assay: Substrate specificity of fructosyl peptide oxidase-immobilized column (Example 4); conditions: buffer A pH 7.0; for Relative response value: normalized to 100 for the response to fructosyl valine, 30° C.
Experimental: In the same way as described in Example 1 (1), 150 mg of firebrick powder (30 to 60 meshes) was formylated. The solution (200 μL) of fructosyl peptide oxidase (140 units/mL, from Kikkoman Co.) in 100 mM sodium phosphate buffer (pH 7.0) was contacted with the formylated firebrick powder, and then incubated at 0 to 4° C. for one day for the enzyme immobilization.
In the assay apparatus shown in FIG. 1, the protease-immobilized column (14), the flow type calorimeter (16) and the first immobilized enzyme column (17) were not disposed, and the electrode for glucose was placed in the electrode for hydrogen peroxide (18), the fructosyl peptide oxidase-immobilized column in the second immobilized enzyme column (19), and the electrode for hydrogen peroxide in the electrode for hydrogen peroxide (20). The buffer A was pumped out from the buffer tank (1) by the pump (2), and a 5 μL portion of the sample was injected using the valve (4). The injected sample transferred with the flowing buffer A, passed through the mixing coil (15) in the incubator (13), and thus the sample temperature was adjusted and the sample was mixed with the buffer. And then the sample passed through the downstream electrode for glucose (18), fructosyl peptide oxidase-immobilized column (19) and an electrode for hydrogen peroxide (20), hydrogen peroxide was produced from fructosyl valylhistidine in the sample, and the change of the current was detected.
The composition of the buffer A for the assay apparatus contained 100 mM phosphoric acid, 50 mM potassium chloride and 1 mM sodium azide, and its pH was 7.0.
as §1
On fructosyl peptide oxidase-immobilized column, the substrate specificity for various fructosyl amino acids, fructosyl peptides, amino acids and sugars was examined using the assay apparatus mentioned in (4) when pH of the buffer A was 7.0. In the Table 4, the relative values were normalized to 100 for the response to fructosyl valine.

[4] = system: fructosyl amino acid oxidase; assay: Characteristics of fructosyl amino acid oxidase-immobilized column (Example 5); conditions: buffer pH 8.0, 37° C.
Experimental: FIG. 1 was the flow type assay apparatus with one flow path. The buffer A was pumped out from the buffer tank (1) using the pump (2), and a 5 μL portion of the sample was injected using the valve (4). The fructosyl amino acid oxidase-immobilized column was placed in the first immobilized enzyme column (17) and the electrode for hydrogen peroxide was placed downstream. The second immobilized enzyme column (19), the second electrode for hydrogen peroxide (20), the protease-immobilized column (14) and the flow type calorimeter (16) were not disposed. The injected sample transferred with the flowing buffer, passed through the mixing coil (15) in the incubator (13), and thus the sample temperature was adjusted and the sample was mixed with the buffer. The sample passed through the fructosyl amino acid oxidase-immobilized column (17) and the electrode for hydrogen peroxide (18), hydrogen peroxide was produced from fructosyl valine in the sample, and the change of the current was detected.
The composition of the buffer for this assay apparatus contained 100 mM phosphoric acid, 50 mM potassium chloride and 1 mM sodium azide, and its pH was 8.0.
The flow rate of the buffer was 1.0 mL/minute, and the temperature in the incubator was 37° C.
Using the assay apparatus 1 mentioned in (3), a 5 μL portion of fructosyl glycine was injected, and the characteristics of the fructosyl amino acid oxidase-immobilized column was examined.
When pH in the buffer was 7.0, 7.5, 8.0, 8.5 or 9.0, the activity in the oxidation of fructosyl glycine was measured.

Row | SMILES | Relative activity (%) pH 6.0 [1] [%] | Relative activity (%) pH 7.0 [1] [%] | Relative activity (%) pH 8.0 [1] [%] | Relative response value [2] | Relative response value [3] | Relative activity (%) ([4]; sample concentration 10 mM) | response of fructosyl peptide oxidase-immobilized column (in words) ([1]; at any pH (6.0, 7.0, 8.0)) | response of fructosyl peptide oxidase-immobilized column (in words) [3] | Relative activity (%) ([4]; sample concentration 0.1 mM) | pH at which activity was maximized ([1]; buffer pH 6.0, 7.0 or 8.0 tested) | response of fructosyl amino acid oxidase-immobilized column [2]
1 | OCC(O)CO [Glycerol] | 0 | 0 | 0 | 0.0 | 0.0 | 0.0 |  |  |  |  | 
2 | O=C[C@H](O)[C@@H](O)[C@H](O)CO [Xylose] | 0 | 0 | 0 | 0.0 | 0.0 | 0.0 |  |  |  |  | 
3 | N=C(N)NCCC[C@H](N)C(=O)O [Arg] | 0 | 0 | 0 | 0.0 | 0.0 | 1.0 |  |  |  |  | 
4 | N[C@@H](Cc1c[nH]cn1)C(=O)O [His] | 0 | 0 | 0 | 0.0 | 0.0 | 0.0 |  |  |  |  | 
5 | O=C(O)[C@H](CCCCNCC(=O)[C@@H](O)[C@H](O)[C@H](O)CO)NCC(=O)[C@@H](O)[C@H](O)[C@H](O)CO [α, ε-Fructosyl lysine] | 9 | 10 | 11 | 1.1 | 9.9 |  | scarcely responded | scarcely responded | 5.0 |  | 
6 | NCCCC[C@H](N)C(=O)O [Lys] | 0 | 0 | 0 | 0.0 | 0.0 | 41.0 |  |  |  |  | 
7 | N[C@@H](CS)C(=O)O [Cys] |  |  |  |  |  | 507.0 |  |  |  |  | 
8 | O=C(O)[C@@H]1CCCN1 [Pro] | 0 | 0 | 0 | 0.0 | 0.0 | 2.0 |  |  |  |  | 
9 | O=C(CO)[C@@H](O)[C@H](O)[C@H](O)CO [Fructose] | 0 | 0 | 0 | 0.0 | 0.0 | 1.0 |  |  |  |  | 
10 | CC(C)C[C@H](N)C(=O)O [Leu] | 0 | 0 | 0 | 0.0 | 0.0 | 0.0 |  |  |  |  | 
11 | N[C@@H](CC(=O)O)C(=O)O [Asp] | 0 | 0 | 0 | 0.0 | 0.0 | 0.0 |  |  |  |  | 
12 | N[C@@H](Cc1c[nH]c2ccccc12)C(=O)O [Trp] | 0 | 0 | 0 | 0.0 | 0.0 | 13.0 |  |  |  |  | 
13 | CC(C)[C@H](NC1(CO)O[C@H](CO)[C@@H](O)[C@@H]1O)C(=O)N[C@@H](Cc1c[nH]cn1)C(=O)O (stereo partly shown) [Fructosyl valyl histidine] | 88 | 87 | 66 | 1.3 | 86.8 |  |  |  |  | 7.0 | scarcely responded
14 | C[C@@H](O)[C@H](N)C(=O)O [Thr] | 0 | 0 | 0 | 0.0 | 0.0 | 2.0 |  |  |  |  | 
15 | N[C@@H](CO)C(=O)O [Ser] | 0 | 0 | 0 | 0.0 | 0.0 | 0.0 |  |  |  |  | 
16 | OC[C@@H](O)[C@@H](O)[C@H](O)[C@@H](O)CO [D-Sorbitol] | 0 | 0 | 0 | 0.0 | 0.0 | 0.0 |  |  |  |  | 
17 | C[C@H](N)C(=O)O [Ala] | 0 | 0 | 0 | 0.0 | 0.0 | 0.0 |  |  |  |  | 
18 | N[C@@H](Cc1ccccc1)C(=O)O [Phe] | 0 | 0 | 0 | 0.0 | 0.0 | 0.0 |  |  |  |  | 
19 | NC(=O)C[C@H](N)C(=O)O [Asn] | 0 | 0 | 0 | 0.0 | 0.0 | 0.0 |  |  |  |  | 
